The numbers were not newly measured in patent publication US20220296715A1, “METHOD FOR PREVENTING PRECIPITATION OF INJECTABLE SOLUTION CONTAINING p-BORONOPHENYLALANINE” (Stella Pharma Corporation, priority 2019, published 2022), which cites them from elsewhere.

The conditions of the series: physiological pH.

With `N[C@@H](Cc1ccc(B(O)O)cc1)C(=O)O` [p-Boronophenylalanine, p-boronophenylalanine], the solubility result is given as “very poor solubility”.
